The values that follow come from article PMC7292537, “BGAL1 depletion boosts the level of β‐galactosylation of N‐ and O‐glycans in N. benthamiana” (Plant Biotechnology Journal, 2020).

The assay has as its system T1, NbBGAL1 (SPα-BGAL1).
T1 construct: mature residues 25-846 (GH35 + Gal-lectin domain), own signal peptide replaced by barley alpha-amylase signal peptide, C-terminal StrepII tag (WSHPQFEK); transiently expressed in N. benthamiana, apoplastic fluid not purified; 95 kDa full length plus 48 kDa GH35 and 38 kDa truncated forms; precursor 846 aa
Briefly: fluorescein release, Hanes-Woolf and Lineweaver-Burk. The class given is biochemical, Nicotiana benthamiana. The following applies: read-out: apparent KM; apoplastic fluid with overexpressed enzyme; 50 mM MES pH 5.0, 25 °C, 1 h; FDG 0-250 µM (printed unit mM doubtful, perhaps µM); unit of the source corrected; heading: apparent KM.

The term Km denotes the substrate concentration at which the rate is half of its maximum.

In the case of `O=C1OC2(c3ccc(O[C@@H]4O[C@H](CO)[C@H](O)[C@H](O)[C@H]4O)cc3Oc3cc(O[C@@H]4O[C@H](CO)[C@H](O)[C@H](O)[C@H]4O)ccc32)c2ccccc21` [FDG, fluorescein di-β-D-galactopyranoside], the Km came out at 0.0298 mM.
